Experimental data taken from ChEMBL document CHEMBL4152229, “Synthesis and biological evaluation of 2,6-disubstituted-9H-purine, 2,4-disubstitued-thieno[3,2-d]pyrimidine and -7H-pyrrolo[2,3-d]pyrimidine analogues as novel CHK1 inhibitors” (Eur J Med Chem, 2018).

Experiments:
[1] = tested on: HEK293; assay: Antiproliferative activity against human HEK293 cells after 72 hrs by MTS assay; type: functional; settings: HEK293, 72 h
[2] = tested on: HT-29; assay: cells; settings: Homo sapiens, HT-29, 72 h
Description: Antiproliferative activity against human HT-29 cells after 72 hrs by MTS assay

[3] = target: T1, Serine/threonine-protein kinase Chk1 (Homo sapiens) (UniProt O14757); assay: Inhibition of CHK1 (unknown origin) at 10 uM using Cdc25 peptide as substrate preincubated for 30 mins followed by substrate addition and measured after 60 mins by ADP-Glo kinase assay
T1 sequence (whole entry): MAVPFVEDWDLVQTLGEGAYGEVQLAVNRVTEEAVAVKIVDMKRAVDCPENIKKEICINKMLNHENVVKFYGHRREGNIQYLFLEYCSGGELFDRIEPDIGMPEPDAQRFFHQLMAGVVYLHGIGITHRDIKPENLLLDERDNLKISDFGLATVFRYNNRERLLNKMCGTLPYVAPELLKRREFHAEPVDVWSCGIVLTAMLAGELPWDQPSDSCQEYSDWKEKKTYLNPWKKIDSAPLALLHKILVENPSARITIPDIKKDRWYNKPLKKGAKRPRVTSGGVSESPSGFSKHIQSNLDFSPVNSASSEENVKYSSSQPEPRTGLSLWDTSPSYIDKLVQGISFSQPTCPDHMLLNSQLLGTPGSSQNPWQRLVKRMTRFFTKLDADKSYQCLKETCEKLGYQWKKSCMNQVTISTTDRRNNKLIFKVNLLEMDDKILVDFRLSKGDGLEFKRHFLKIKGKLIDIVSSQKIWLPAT

[4] = target: T2, Serine/threonine-protein kinase Chk1 (Homo sapiens, UniProt O14757); assay: Inhibition of CHK1 (unknown origin) using Cdc25 peptide as substrate preincubated for 30 mins followed by substrate addition and measured after 60 mins by ADP-Glo kinase assay
T2 sequence (O14757 whole entry): T1 sequence (whole entry)

[5] = tested on: HT-29; assay: Cell cycle arrest in human HT-29 cells assessed as accumulation at S phase at 25 nM after 48 hrs by propidium iodide/RNase staining-based flow cytometric analysis (reference value: 30.9%); type: functional
[6] = tested on: HT-29; assay: Cell cycle arrest in human HT-29 cells assessed as accumulation at G1 phase at 25 nM after 48 hrs by propidium iodide/RNase staining-based flow cytometric analysis (reference value: 62.1%); type: functional
[7] = tested on: HT-29; assay: Cell cycle arrest in human HT-29 cells assessed as accumulation at G2 phase at 25 nM after 48 hrs by propidium iodide/RNase staining-based flow cytometric analysis (reference value: 7.0%); type: functional

Row | SMILES | GI50 [1] | GI50 [2] | inhibition [3] | IC50 [4] | Activity [5] | Activity [6] | Activity [7]
1 | COc1cc(Nc2nc(N3CCOCC3)c3sccc3n2)cc(OC)c1OC | > 100 µM | 31.6 µM |  |  |  |  | 
2 | COc1cc(Nc2nc(N3CCOCC3)c3nc[nH]c3n2)cc(OC)c1OC | > 100 µM | > 100 µM | 35.8% |  |  |  | 
3 | COc1cc(Nc2nc(N3CCOCC3)c3cc[nH]c3n2)cc(OC)c1OC | 58.7 µM | 50.4 µM | 26.9% |  |  |  | 
4 | FC(F)(F)Oc1cccc(Nc2nc(N3CCOCC3)c3nc[nH]c3n2)c1 | > 100 µM | > 100 µM | 31.6% |  |  |  | 
5 | c1cncc(Nc2nc(N3CCOCC3)c3nc[nH]c3n2)c1 | 33.7 µM | > 100 µM | 82.2% | 8.06 µM |  |  | 
6 | COc1ccc(Nc2nc(N3CCOCC3)c3sccc3n2)cc1 | > 100 µM | 29.7 µM |  |  |  |  | 
7 | c1ccc(Nc2nc(N3CCOCC3)c3cc[nH]c3n2)cc1 | 64.7 µM | 58.3 µM | 44.5% |  |  |  | 
8 | c1ccc(Nc2nc(N3CCOCC3)c3nc[nH]c3n2)cc1 | 60.2 µM | > 100 µM | 82.4% | 2.57 µM |  |  | 
9 | N#Cc1cnc(Nc2cc(NC[C@H]3CNCCO3)c(C(F)(F)F)cn2)cn1 [SRA-737] | 1.39 µM | 9.22 µM |  |  |  |  | 
10 | COc1cccc(Nc2nc(N3CCOCC3)c3nc[nH]c3n2)c1 | 38.7 µM | 72.6 µM | 84.9% | 3.63 µM |  |  | 
11 | c1ccc2ncc(Nc3nc(N4CCOCC4)c4nc[nH]c4n3)cc2c1 | 22.3 µM | 25.1 µM | 63.1% |  |  |  | 
12 | O=C(Nc1cccc(Nc2nc(N3CCOCC3)c3nc[nH]c3n2)c1)C(F)(F)F | 73.6 µM | 58 µM | 50% |  |  |  | 
13 | c1cnc(Nc2nc(N3CCOCC3)c3nc[nH]c3n2)cn1 | 27.2 µM | > 100 µM | 38.2% |  |  |  | 
14 | Clc1cccc(Nc2nc(N3CCOCC3)c3nc[nH]c3n2)c1 | 38.4 µM | 34.8 µM | 77.3% | 2.83 µM |  |  | 
15 | c1ccc(Nc2nc(N3CCOCC3)c3sccc3n2)cc1 | > 100 µM | 54.5 µM |  |  |  |  | 
16 | COc1ccc(Nc2nc(N3CCOCC3)c3cc[nH]c3n2)cc1 | 63.6 µM | 38.4 µM | 16.7% |  |  |  | 
17 | Fc1ccc(Nc2nc(NC3CCOCC3)c3nc[nH]c3n2)cc1 | > 100 µM | 86.9 µM | 37.2% |  |  |  | 
18 | COc1ccccc1Nc1nc(N2CCOCC2)c2nc[nH]c2n1 | > 100 µM | > 100 µM | 3.8% |  |  |  | 
19 | NC(=O)Nc1cc(-c2cccc(F)c2)sc1C(=O)N[C@H]1CCCNC1 [AZD-7762] | 0.236 µM | 0.167 µM |  |  |  |  | 
20 | FC(F)(F)c1cccc(Nc2nc(N3CCOCC3)c3nc[nH]c3n2)c1 | 31.4 µM | 29.1 µM | 61.3% |  |  |  | 
21 | Fc1cccc(Nc2nc(N3CCOCC3)c3nc[nH]c3n2)c1 | 33.7 µM | 60.8 µM | 92% | 3.6 µM |  |  | 
22 | c1ccc(Nc2nc(NC3CCOCC3)c3nc[nH]c3n2)cc1 | 31.5 µM | 80.3 µM | 61.5% |  |  |  | 
23 | Nc1ccn([C@@H]2O[C@H](CO)[C@@H](O)C2(F)F)c(=O)n1 [GEMCITABINE] |  |  |  |  | 10.5% | 4.3% | 85.2%
24 | COc1ccc(Nc2nc(N3CCOCC3)c3nc[nH]c3n2)cc1 | > 100 µM | 74.5 µM | 51% |  |  |  | 
25 | NC(=O)c1ccc(Nc2nc(N3CCOCC3)c3nc[nH]c3n2)cn1 | 72.2 µM | 72.2 µM | 80.3% | 9.87 µM |  |  | 
26 | Cc1cccc(Nc2nc(N3CCOCC3)c3nc[nH]c3n2)c1 | 40.5 µM | 67.6 µM | 85.2% | 1.27 µM |  |  | 
